Results as given in article PMC9400797 (Cell, 2022).

Key:
[1] = biological target: T1, cannabinoid receptor 1 (CB1) (Homo sapiens, UniProt P21554); experiment: GTPase-Glo GTP turnover assay with purified CB1 and Gi1, […] ligand; assay type: biochemical
Target sequence in this assay (P21554 whole entry): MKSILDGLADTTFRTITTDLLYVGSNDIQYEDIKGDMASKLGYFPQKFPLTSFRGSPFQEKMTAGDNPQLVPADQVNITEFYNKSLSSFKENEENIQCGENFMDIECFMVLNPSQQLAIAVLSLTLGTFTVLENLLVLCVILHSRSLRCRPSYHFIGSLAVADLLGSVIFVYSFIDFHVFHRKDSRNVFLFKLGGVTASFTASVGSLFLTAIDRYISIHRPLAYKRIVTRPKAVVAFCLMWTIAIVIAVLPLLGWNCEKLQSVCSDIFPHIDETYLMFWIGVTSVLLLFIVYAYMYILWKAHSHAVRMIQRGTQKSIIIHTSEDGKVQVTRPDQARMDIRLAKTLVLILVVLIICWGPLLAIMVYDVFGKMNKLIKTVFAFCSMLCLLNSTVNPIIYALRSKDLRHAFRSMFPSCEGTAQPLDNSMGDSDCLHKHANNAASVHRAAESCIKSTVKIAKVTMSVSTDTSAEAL
Target sequence in this assay (P63096 2-354 partner): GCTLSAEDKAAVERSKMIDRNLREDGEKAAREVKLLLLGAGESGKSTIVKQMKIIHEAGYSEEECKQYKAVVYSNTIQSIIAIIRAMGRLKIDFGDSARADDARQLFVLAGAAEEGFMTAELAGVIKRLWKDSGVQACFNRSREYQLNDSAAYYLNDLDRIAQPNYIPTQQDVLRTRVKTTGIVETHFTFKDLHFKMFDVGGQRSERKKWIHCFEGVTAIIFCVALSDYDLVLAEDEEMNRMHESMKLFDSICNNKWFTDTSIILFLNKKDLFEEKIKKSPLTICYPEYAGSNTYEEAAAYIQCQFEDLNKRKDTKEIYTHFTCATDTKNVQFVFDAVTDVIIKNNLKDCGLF

[2] = biological target: T1, cannabinoid receptor 1 (CB1); experiment: CB1 radioligand binding assay
Target sequence in this assay (P21554 whole entry): as the sequence (P21554 whole entry) above

Compound | GTPase-Glo GTP turnover assay with purified CB1 and Gi1, 20 uM ligand [1] | IC50 [2]
C[C@H](NC(=O)C(C)(C)Oc1ccc(C(F)(F)F)cn1)[C@@H](Cc1ccc(Cl)cc1)c1cccc(C#N)c1 [taranabant] | GTPase-Glo assay reveals rimonabant and taranabant to decrease GTP turnover compared with Apo | 
BODIPY517/547-genistein |  | 375 nM
